The values that follow come from patent publication US7560262B2, “Polynucleotide sequences encoding alkaline α-galactosidases and methods of using same” (The State of Israel - Ministry of Agriculture & Rural …, priority 2002, dated 2009).

In data set [1] the target is recombinant Aga-I (alkaline-α-galactosidase I) (Cucumis melo, UniProt A0ABM3L1M0). In words: α-galactosidase assay of E. coli extracts: substrate specificity of recombinant Aga-I. It counts as biochemical. Conditions: for Activity (calculated specific activity): recombinant Aga-I, substrate 10 mM, pH 8; for activity of recombinant Aga-I with nitrophenyl substrates: recombinant Aga-I extract. How it is done: α-galactosidase assay of E. coli extracts—α-galactosidase activity was assayed as described by Smart and Pharr [Smart and Pharr (1980) Plant Physiol. 66:731-734] and as performed by Gao and Schaffer (1999) Plant Physiol. 119:979-987]. Reaction was initiated by adding 50 μl enzyme aliquot to 200 μl McIlvaine buffer (made by mixing stock solutions of 0.1M citric acid and 0.2M sodium hydrogen phosphate to achieve pH of 5.0 and 7.0 for the assay of acid and alkaline activity, respectively) and 50 μl substrate (final concentration, 5 mM for pNPG and 10 mM for the natural substrates). Optimum pH for galactosidase activity was determined using the following reaction buffers: Mcllvaine buffer, over a pH range of 4 to 7, 100 mM Hepes buffer over a pH range of 7 to 8, or 50 mM Tris buffer over a pH range of 8 to 8.7. […] In addition, substrate concentration dependence of the reaction was measured by varying the substrate concentrations from 0-10 mM. Km and Vmax values were calculated using Lineweaver-Burk plots.

For data set [2], the system named is alkaline α-galactosidase from Cucurbita pepo leaves. Conditions: cited from earlier work; for affinity as substrate: Gaudreault and Webb; for inhibition of the enzyme's activity by the reaction product: Gaudreault and Webb 1983.
Data set [3] can be described thus: pH and temperature dependence of α-galactosidase activity of recombinant Aga-I and Aga-II. In kind it is biochemical. Conditions: for pH of maximal α-galactosidase activity: extracts of transformed E. coli, pNPG, FIG. 4. On the procedure: α-galactosidase assay of E. coli extracts—α-galactosidase activity was assayed as described by Smart and Pharr [Smart and Pharr (1980) Plant Physiol. 66:731-734] and as performed by Gao and Schaffer (1999) Plant Physiol. 119:979-987]. Reaction was initiated by adding 50 μl enzyme aliquot to 200 μl McIlvaine buffer (made by mixing stock solutions of 0.1M citric acid and 0.2M sodium hydrogen phosphate to achieve pH of 5.0 and 7.0 for the assay of acid and alkaline activity, respectively) and 50 μl substrate (final concentration, 5 mM for pNPG and 10 mM for the natural substrates). […] Substrates used were the synthetic substrates based on p-nitrophenol (pNP-sugars), including the pNPa-gal (Sigma) and the natural substrates stachyose, raffinose and melibiose. In addition, substrate concentration dependence of the reaction was measured by varying the substrate concentrations from 0-10 mM. Km and Vmax values were calculated using Lineweaver-Burk plots.

Substrate in data set [4]: OC[C@H]1O[C@H](OC[C@H]2O[C@H](OC[C@H]3O[C@H](O[C@]4(CO)O[C@H](CO)[C@@H](O)[C@@H]4O)[C@H](O)[C@@H](O)[C@@H]3O)[C@H](O)[C@@H](O)[C@H]2O)[C@H](O)[C@@H](O)[C@H]1O
In words: purified protein, by the assay type. As to conditions: other: recombinant Aga-I, pH 8, Lineweaver-Burk plots.

Substrate in data set [5]: OC[C@H]1O[C@H](OC[C@H]2O[C@H](O[C@]3(CO)O[C@H](CO)[C@@H](O)[C@@H]3O)[C@H](O)[C@@H](O)[C@@H]2O)[C@H](O)[C@@H](O)[C@H]1O
In words: purified protein, by the assay type. As to conditions: other: recombinant Aga-I, pH 8, Lineweaver-Burk plots.

Where two headings read alike, the source gives them in different places.

“6-O-α-D-galactopyranosyl-D-glucose [Melibiose]”: the “Activity (calculated specific activity)” value in data set [1] is on record as 124 nmol/mg protein/minute. Further, in data set [2], the affinity as substrate result is listed as “low affinity”.
As for `OC[C@H]1O[C@H](OC[C@H]2O[C@H](O[C@]3(CO)O[C@H](CO)[C@@H](O)[C@@H]3O)[C@H](O)[C@@H](O)[C@@H]2O)[C@H](O)[C@@H](O)[C@H]1O` [Raffinose, O-α-D-galactopyranosyl-(1-6)-O-α-D-glucopyranosyl-(1-2)-beta-D-fructofuranoside], the “Activity (calculated specific activity)” value in data set [1] is 482 nmol/mg protein/minute. For the same molecule, in data set [2], the affinity as substrate entry is “low affinity”.
On to `OC[C@H]1O[C@H](OC[C@H]2O[C@H](OC[C@H]3O[C@H](O[C@]4(CO)O[C@H](CO)[C@@H](O)[C@@H]4O)[C@H](O)[C@@H](O)[C@@H]3O)[C@H](O)[C@@H](O)[C@H]2O)[C@H](O)[C@@H](O)[C@H]1O` [Stachyose, O-α-D-galactopyranosyl-(1-6)-O-α-D-galactopyranosyl-(1-6)-O-α-D-glucopyranosyl-(1-2)-beta-D-fructofuranoside], for which the “Activity (calculated specific activity)” value in data set [1] is given as 645 nmol/mg protein/minute.
For `C[C@@H]1O[C@@H](Oc2ccc([N+](=O)[O-])cc2)[C@@H](O)[C@H](O)[C@@H]1O` [pNP-Fuc], the “activity of recombinant Aga-I with nitrophenyl substrates” value in data set [1] is listed as “no activity”.
Still for that read-out and setting: with `CC(=O)N[C@H]1[C@H](Oc2ccc([N+](=O)[O-])cc2)O[C@H](CO)[C@@H](O)[C@@H]1O` [pNP-NacG] the entry was “no activity”; with `O=[N+]([O-])c1ccc(O[C@H]2O[C@H](CO)[C@@H](O)[C@H](O)[C@H]2O)cc1` [pNP-αGlu], “no activity”.
Still for that read-out and setting: the value for `O=[N+]([O-])c1ccc(O[C@H]2O[C@H](CO)[C@@H](O)[C@H](O)[C@@H]2O)cc1` [pNP-αMan] was “no activity”; that for `O=[N+]([O-])c1ccc(O[C@@H]2O[C@H](CO)[C@H](O)[C@H](O)[C@H]2O)cc1` [pNP-βGal] was “some activity”; that for `O=[N+]([O-])c1ccc(O[C@@H]2O[C@H](CO)[C@@H](O)[C@H](O)[C@H]2O)cc1` [pNP-βGlu] was “no activity”.
Same read-out and setting: the value for `O=[N+]([O-])c1ccc(O[C@@H]2O[C@H](CO)[C@@H](O)[C@H](O)[C@@H]2O)cc1` [pNP-βMan] was “no activity”.
On to `OC[C@H]1O[C@H](O)[C@H](O)[C@@H](O)[C@H]1O` [α-D-galactose], for which the “inhibition of the enzyme's activity by the reaction product” value in data set [2] is on record as “strong inhibitor”; in data set [2] (listed as α-galactose), “strongly inhibited”.

B1: Aga-II: Cucumis melo alkaline α-galactosidase II, SEQ ID NO: 10, encoded by SEQ ID NO: 9 (protein)
chain: MTVTPKISVNDGNLVVHGKTILTGVPDNIVLTPGSGLGLVAGAFIGATASNSKSLHVFPVGVLEGTRFLCCFRFKLWWMTQRMGTSGRDIPFETQFLLMESKGNDGEDPDNSSTIYTVFLPLLEGQFRAALQGNEKNEMEICLESGDNTVETNQGLSLVYMHAGTNPFEVITQAVKAVEKHTQTFLHREKKKLPSFLDWFGWCTWDAFYTDVTAEGVVEGLKSLSEGGAPPKFLIIDDGWQQIEAKPKDADCVVQEGAQFASRLSGIKENHKFQKNGNNYDQVPGLKVVVDDAKKQHKVKFVYAWHALAGYWGGVKPASPGMEHYDSALAYPVQSPGMLGNQPDIVVDSLAVHGIGLVHPKKVFNFYNELHSYLASCGIDGVKVDVQNIIETLGAGHGGRVTLTRSYHQALEASIARNFSDNGCIACMCHNTDSLYSAKQTAVVRASDDYYPRDPASHTIHISSVAYNSLFLGEFMQPDWDMFHSLHPTAEYHGAARAIGGCAIYVSDKPGNHNFDLLKKLVLPDGSVLRAQLPGRPTRDSLFNDPARDGTSLLKIWNMNKCSGVVGVFNCQGAGWCRITKKTRIHDESPGTLTTSVRAADVDAISQVAGADWKGDTIVYAYRSGDLIRLPKGASVPVTLKVLEYDLLHISPLKDIASNISFAPIGLLDMFNTGGAVEQVNVQVVEPIPEFDGEVASELTCSLPNDRPPTATITMKARGCRRFGLYSSQRPLKCSVDKVDVDFVYDEVTGLVTFEIPIPTEEMYRWNIEIQV
modifications: Cucumis melo
Take B1: the “pH of maximal α-galactosidase activity” value in data set [3] is given as 8 pH.

B2: recombinant Aga-I (alkaline-α-galactosidase I) (Cucumis melo) (protein)
chain: MTVGAGITISDANLTVLGNRVLSDVHNNITLTAAPGGGVMNGAFIGVQSDQIGSRRVFPIGKLIGLRFLCAFRFKLWWMTQRMGCSGQEVPFETQFLVVETRDGSNIAGNGEEGDAVYTVFLPILEGDFRAVLQGNDNNEIEICLESGDPSVDGFEGSHLVFVGAGSDPFETITYAVKSVEKHLQTFAHRERKKMPDILNWFGWCTWDAFYTDVTSDGVKKGLESFENGGIPPKFVIIDDGWQSVAKDATSADCKADNTANFANRLTHIKENYKFQKDGKEGERIENPALGLQHIVSYMKEKHATKYVYVWHAITGYWGGVSAGVKEMEQYESKIAYPVASPGVESNEPCDALNSITKTGLGLVNPEKVFNFYNEQHSYLASAGVDGVKVDVQNILETLGAGHGGRVKLARKYHQALEASISRNFQDNGIISCMSHNTDGLYSSKRNAVIRASDDFWPRDPASHTIHIASVAYNSLFLGEFMQPDWDMFHSLHPMAEYHGAARAVGGCAIYVSDKPGQHDFNLLKKLVLPDGSILRAKLPGRPTKDCLFTDPARDGKSLLKIWNLNDLSGVVGVFNCQGAGWCKVGKKNLIHDENPDTITGVIRAKDVSYLWKIAGESWTGDAVIFSHLAGEVVYLPQDASMPITLKPREFDVFTVVPVKELVNDIKFAPIGLIKMFNSGGAVKEMNHQPGSSNVSLKVRGSGPFGAYSSSKPKRVAVDSEEVEFMYDEGGLITIDLKVPEKELYLWDIRIEL
Regarding B2, the values for the Km in data set [4] and in data set [5] were 1.9 mM and 1.8 mM, respectively.

B3: Aga-I: Cucumis melo alkaline-α-galactosidase I, SEQ ID NO: 6, encoded by SEQ ID NO: 5 (protein)
chain: B2 chain
modifications: Cucumis melo
For B3, the “pH of maximal α-galactosidase activity” value in data set [3] worked out at 8 pH. The “galactosidase activity at pH 9” value in data set [3] (pH 9, data not shown) was “activity was still observed”. Moreover, in data set [3] (recombinant Aga-I, data not shown), the “pH range of highest galactosidase activity” value was 7.5-8 pH.

For orientation: Km means the substrate concentration at which the rate is half of its maximum.
